From the supplement of paper PMC10627819

Experiments:
S. pneumoniae D39V = experiment: fitness (endpoint OD595 vs no drug) (fraction); higher = more growth
Procedure, shortened: (§1)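 With the first reading as background, OD595 was measured every 30 min for 14 h in 384-well plates kept at 37 °C and inoculated at OD595 0.01. TSB, LB Lennox or CY was the medium. Fitness is the optical density at the transition into stationary phase divided by the robust mean of no-drug control wells, with a cap of 1.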

S. aureus DSM 20231 = experiment: as above
Procedure, shortened: as §1
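Note: OD595 on entry to stationary phase over no-drug wells; at most 1.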

CC(=O)Oc1ccccc1C(=O)O [Acetylsalicylic acid] + CC1=C\[C@@H](O)CC(=O)Cc2nc(co2)C(=O)N2CCC=C2C(=O)O[C@H](C(C)C)[C@H](C)/C=C/C(=O)NC\C=C\1 [Virginiamycin M1]
fitness, one replicate
Conditions | first compound 250 µg/mL | first compound 500 µg/mL | first compound 1000 µg/mL
S. aureus DSM 20231, partner 0.5 µg/mL | 0.776 | 0.789 | 0.371
S. aureus DSM 20231, partner 1 µg/mL | 0.818 | 0.781 | 0.389
S. pneumoniae D39V, partner 0.15 µg/mL | 0.954 | 0.988 | 0.949
S. pneumoniae D39V, partner 0.3 µg/mL | 0.951 | 0.938 | 0.918

fitness
Conditions | first compound 250 µg/mL | first compound 500 µg/mL | first compound 1000 µg/mL
S. aureus DSM 20231, partner 0.0625 µg/mL | 0.86 | 0.764 | 0.564
S. aureus DSM 20231, partner 0.125 µg/mL | 0.922 | – | –
S. aureus DSM 20231, partner 0.25 µg/mL | 0.877 | 0.715 | 0.503
S. pneumoniae D39V, partner 0.5 µg/mL | 0.967 | 0.964 | 0.872
S. pneumoniae D39V, partner 1 µg/mL | 0.914 | 0.961 | –
S. pneumoniae D39V, partner 2 µg/mL | 0.933 | 0.903 | –

CN(C)[C@@H]1C(O)=C(C(N)=O)C(=O)[C@@]2(O)C(O)=C3C(=O)c4c(O)ccc(Cl)c4[C@@](C)(O)[C@H]3C[C@@H]12 [Chlortetracycline] + CN[C@H](CC(C)C)C(=O)N[C@H]1C(=O)N[C@@H](CC(N)=O)C(=O)N[C@H]2C(=O)N[C@H]3C(=O)N[C@H](C(=O)N[C@H](C(=O)O)c4cc(O)cc(O)c4-c4cc3ccc4O)[C@H](O)c3ccc(c(Cl)c3)Oc3cc2cc(c3O[C@@H]2O[C@H](CO)[C@@H](O)[C@H](O)[C@H]2O[C@H]2C[C@](C)(N)[C@H](O)[C@H](C)O2)Oc2ccc(cc2Cl)[C@H]1O [Vancomycin]
Conditions | fitness
S. aureus DSM 20231, first compound 0.012 µg/mL, partner 0.1875 µg/mL | 0.541
S. aureus DSM 20231, first compound 0.012 µg/mL, partner 0.375 µg/mL | 0.499
S. aureus DSM 20231, first compound 0.012 µg/mL, partner 0.75 µg/mL | 0.548
S. aureus DSM 20231, first compound 0.024 µg/mL, partner 0.375 µg/mL | 0.28
S. aureus DSM 20231, first compound 0.048 µg/mL, partner 0.1875 µg/mL | 0.103
S. aureus DSM 20231, first compound 0.048 µg/mL, partner 0.375 µg/mL | 0.0854
S. aureus DSM 20231, first compound 0.048 µg/mL, partner 0.75 µg/mL | 0.0806
S. pneumoniae D39V, first compound 0.012 µg/mL, partner 0.03125 µg/mL | 0.883
S. pneumoniae D39V, first compound 0.012 µg/mL, partner 0.0625 µg/mL | 0.903
S. pneumoniae D39V, first compound 0.012 µg/mL, partner 0.125 µg/mL | 0.706
S. pneumoniae D39V, first compound 0.024 µg/mL, partner 0.03125 µg/mL | 0.832
S. pneumoniae D39V, first compound 0.024 µg/mL, partner 0.0625 µg/mL | 0.829
S. pneumoniae D39V, first compound 0.048 µg/mL, partner 0.03125 µg/mL | 0.734
S. pneumoniae D39V, first compound 0.048 µg/mL, partner 0.0625 µg/mL | 0.688
S. pneumoniae D39V, first compound 0.375 µg/mL, partner 0.125 µg/mL | 0.0536
S. pneumoniae D39V, first compound 0.375 µg/mL, partner 0.25 µg/mL | 0.0553
S. pneumoniae D39V, first compound 0.375 µg/mL, partner 0.5 µg/mL | 0.0628
S. pneumoniae D39V, first compound 0.75 µg/mL, partner 0.125 µg/mL | 0.0485
S. pneumoniae D39V, first compound 0.75 µg/mL, partner 0.25 µg/mL | 0.0618
S. pneumoniae D39V, first compound 0.75 µg/mL, partner 0.5 µg/mL | 0.0842
S. pneumoniae D39V, first compound 1.5 µg/mL, partner 0.125 µg/mL | 0.0391
S. pneumoniae D39V, first compound 1.5 µg/mL, partner 0.25 µg/mL | 0.0305
S. pneumoniae D39V, first compound 1.5 µg/mL, partner 0.5 µg/mL | 0.0442

S. aureus DSM 20231, first compound 0.006 µg/mL, one replicate
Conditions | fitness
partner 0.1875 µg/mL | 0.806
partner 0.375 µg/mL | 0.776
partner 0.75 µg/mL | 0.79

CN(C)[C@@H]1C(O)=C(C(N)=O)C(=O)[C@@]2(O)C(O)=C3C(=O)c4c(O)ccc(Cl)c4[C@@](C)(O)[C@H]3C[C@@H]12 [Chlortetracycline] + CO/N=C(\C(=O)N[C@@H]1C(=O)N2C(C(=O)[O-])=C(C[N+]3(C)CCCC3)CS[C@H]12)c1csc(N)n1 [Cefepime]
Conditions | fitness
S. aureus DSM 20231, first compound 0.012 µg/mL, partner 0.125 µg/mL | 0.63
S. aureus DSM 20231, first compound 0.012 µg/mL, partner 0.25 µg/mL | 0.617
S. aureus DSM 20231, first compound 0.012 µg/mL, partner 0.5 µg/mL | 0.636
S. aureus DSM 20231, first compound 0.024 µg/mL, partner 0.125 µg/mL | 0.388
S. aureus DSM 20231, first compound 0.048 µg/mL, partner 0.125 µg/mL | 0.274
S. aureus DSM 20231, first compound 0.048 µg/mL, partner 0.25 µg/mL | 0.304
S. aureus DSM 20231, first compound 0.048 µg/mL, partner 0.5 µg/mL | 0.274
S. pneumoniae D39V, first compound 0.012 µg/mL, partner 0.007 µg/mL | 0.964
S. pneumoniae D39V, first compound 0.012 µg/mL, partner 0.014 µg/mL | 0.949
S. pneumoniae D39V, first compound 0.012 µg/mL, partner 0.028 µg/mL | 0.836
S. pneumoniae D39V, first compound 0.024 µg/mL, partner 0.007 µg/mL | 0.936
S. pneumoniae D39V, first compound 0.024 µg/mL, partner 0.014 µg/mL | 0.86
S. pneumoniae D39V, first compound 0.024 µg/mL, partner 0.028 µg/mL | 0.811
S. pneumoniae D39V, first compound 0.048 µg/mL, partner 0.007 µg/mL | 0.659
S. pneumoniae D39V, first compound 0.048 µg/mL, partner 0.014 µg/mL | 0.661
S. pneumoniae D39V, first compound 0.048 µg/mL, partner 0.028 µg/mL | 0.693
S. pneumoniae D39V, first compound 0.375 µg/mL, partner 0.0078 µg/mL | 0.0772
S. pneumoniae D39V, first compound 0.375 µg/mL, partner 0.0155 µg/mL | 0.049
S. pneumoniae D39V, first compound 0.375 µg/mL, partner 0.031 µg/mL | 0.0797
S. pneumoniae D39V, first compound 0.75 µg/mL, partner 0.0078 µg/mL | 0.0925
S. pneumoniae D39V, first compound 0.75 µg/mL, partner 0.0155 µg/mL | 0.0687
S. pneumoniae D39V, first compound 0.75 µg/mL, partner 0.031 µg/mL | 0.0749
S. pneumoniae D39V, first compound 1.5 µg/mL, partner 0.0078 µg/mL | 0.0695
S. pneumoniae D39V, first compound 1.5 µg/mL, partner 0.0155 µg/mL | 0.0769
S. pneumoniae D39V, first compound 1.5 µg/mL, partner 0.031 µg/mL | 0.0751

S. aureus DSM 20231, first compound 0.006 µg/mL, one replicate
Conditions | fitness
partner 0.125 µg/mL | 0.792
partner 0.25 µg/mL | 0.774
partner 0.5 µg/mL | 0.722
